This is an account of results in article PMC4189262 (Pharmacognosy Magazine, 2014).

For one data set, the system named is human CYP1A2. Particulars: ref Shimada et al. [26]; cited from earlier work.
Data set [1] relates to rat pheochromocytoma PC12 cells. Conditions: limited supply of serum and hydrogen peroxide, ref Hong et al. [14]; cited from earlier work.
Data set [2] concerns isolated rat hepatocytes. Briefly: Lactate dehydrogenase. It is filed as cell-based. Conditions: 60 μM, hepatocytes incubation, vs control.
Data set [3] has as its system isolated rat hepatocytes. Briefly: Trypan blue exclusion. Particulars: 60 μM, hepatocytes incubation, vs control.
The test system of data set [4] is isolated rat hepatocytes. The data set can be described thus: Glutathione. It is filed as cell-based. Conditions: 60 μM, hepatocytes incubation, vs control.
Data set [5] concerns isolated rat hepatocytes. The data set can be described thus: Malondialdehyde. In kind it is cell-based. Particulars: 60 μM, hepatocytes incubation, vs control.

Each structure is given as a SMILES string.

Take `O=c1cc(-c2ccc(O)cc2)oc2cc(O)cc(O)c12` [apigenin]: the “inhibitory activity on human CYP1A2” value in the data set on human CYP1A2 is recorded as “inhibitory activity”.

Turning to `COc1cc(O)c2c(=O)c(O)c(-c3ccc(O)cc3)oc2c1` [rhamnocitrin, kempferol 7-O-methyl ether], the “protective effects on oxidative damage” value in data set [1] is “protective effects”.

In the case of `Cn1c(CCCC(=O)O)nc2cc(N(CCCl)CCCl)ccc21` [Bendamustine], the “increased LDH leakage” value with isolated rat hepatocytes [2] was found to be 59%. Besides, the “reduction of cell viability” value with isolated rat hepatocytes [3] was 33%. The “depletion of cell GSH” value in the data set with isolated rat hepatocytes [4] was determined as 76%. Further, the “increased MDA level” value in the data set on isolated rat hepatocytes [5] came out at 194%.

With `O=c1c(-c2ccc(O)cc2)coc2cc(O)cc(O)c12` [genistein], the “inhibitory activity on human CYP1A2” value with human CYP1A2 was “inhibitory activity”.

Consider `O=P1(N(CCCl)CCCl)NCCCO1` (stereo not drawn) [Cyclophosphamide], for which the “increased LDH leakage” value with isolated rat hepatocytes [2] stood at 100%. The “reduction of cell viability” value in the data set on isolated rat hepatocytes [3] amounted to 43%. In addition, in the data set on isolated rat hepatocytes [4], the “depletion of cell GSH” value is given as 72%. The “increased MDA level” value with isolated rat hepatocytes [5] was 184%.

In the case of `O=c1c(O)c(-c2ccc(O)cc2)oc2cc(O)cc(O)c12` [kaempferol], the “protective effects on oxidative damage” value in data set [1] was “protective effects”. In addition, the “inhibitory activity on human CYP1A2” value in the data set on human CYP1A2 was “inhibitory activity”.

In the case of `O=c1cc(-c2ccccc2)oc2cc(O)cc(O)c12` [chrysin], the “inhibitory activity on human CYP1A2” value with human CYP1A2 is recorded as “inhibitory activity”.

On to `O=c1c(O)c(-c2ccccc2)oc2cc(O)cc(O)c12` [galangin], for which the “inhibitory activity on human CYP1A2” value in the data set on human CYP1A2 was “inhibitory activity”.
